A short description of series [1]: DPPH radical scavenging assay. In kind it is biochemical. Conditions: 30 min, 517 nm. The protocol: To estimate the Carbazole derivatives' antioxidant potential, a solution of each compound (1 mM/mL) in methanol was serially diluted with methanol to obtain a concentration of 1, 2, 5, 10, 20, 50, and 100 µM/mL. Then, DPPH (2,2-diphenyl-1-picrylhydrazyl) reagent (Sigma, USA) was dissolved in 0.002% w/v methanol and mixed with the previously prepared working concentrations in a 1:1 ratio. The same procedures were repeated for Trolox (Sigma-Aldrich, Denmark), which was used as a positive control. All of the solutions were kept in the dark chamber for 30 min at an ordinary temperature. Then, their absorbance values were measured at a wavelength of 517 nm utilizing a UV–visible spectrophotometer. The DPPH inhibition potentials by Carbazole derivatives and Trolox were determined employing the following equation: DPPH inhibition(\%)=abs(blank)-abs(sample)/abs(blank)∗100\% where absblank is the blank absorbance and abssample is the absorbance of the samples [58]. The antioxidant half-maximal inhibitory concentration (IC50) of the synthesized carbazole derivatives and Trolox were assessed by using an online tool “Quest Graph™ IC50 Calculator.” AAT Bioquest, Inc., 25 May. 2023, https://www.aatbio.com/tools/ic50-calculator.
In general terms: Loss of DPPH colour is used to gauge radical scavenging.

Series [2] has as its system MCF-7 cell line. Put plainly: MTT cell viability, MCF-7 cancer cell line. Type of series: cell-based. The conditions noted are these: for IC50: Homo sapiens, MCF7, MTT, 48 h, read-out: IC50 values Carbazole Derivatives Effect on MCF-7 Cell Line; for selective index (SI): L929 vs MCF-7. The protocol: MCF-7 cancer cell lines were cultured at Dulbecco’s Modified Eagle Medium High Glucose (DMEM) (EuroClone, Via Figino, Italy); fetal bovine serum (FBS) and MTT (3-(4,5-Dimethylthiazol-2-yl)-2,5-Diphenyl Tetrazolium Bromide) were provided by Sigma-Aldrich (Darmstadt, Germany); ApopNexin Annexin-V-FITC with PI Apoptosis Kit was obtained from Merck (Darmstadt, Germany); Total RNA Isolation Kit was provided by Analytic Jena (Jena, Germany), SensiFast cDNA Synthesis Kit was provided by Meridian Bioscience (Cincinati, USA), SybrGreen Master Mix was obtained from EuroClone (Via Figino, Italy).
(§1) Cells (MCF-7 and L929) were incubated in 75 cm^2 sterile flasks with 10% FBS, 100 U/mL penicillin, and 100 µg/mL streptomycin. The cells were grown at 37 ^○C in 5% CO2, and MTT was used to screen the viability of the cells. Cells were seeded at a density of 10^4 cells per well. The cells were then cultured for 24 h in 100 µl of DMEM complete medium. After pretreatment with different concentrations of the compounds for 48 h, 10 µl of 5 mg/mL MTT solution was added to each well and incubated for 4 h at 37 ^○C, and 100 µl of DMSO was used in each well to dissolve the blue formazan crystals. Then, the absorbance was measured at 570 nm. The cell viability percentages of compound 4o against MCF-7 cancer cell lines and L929 normal cell lines were presented in Fig. 2 in comparison with doxorubicin anticancer agent.

For series [3], the system named is L929 normal cell lines. Put plainly: MTT cell viability, L929 normal cell line. Conditions: Mus musculus, 48 h. Type of series: cell-based. The protocol:
as §1

For series [4], the system named is MCF-7 cells. Put plainly: Annexin-V-FITC/PI apoptosis assay by flow cytometry. In kind it is cell-based. The conditions noted are these: for total dead cells: MCF-7, sum of pre-apoptotic, post-apoptotic and necrosis. The protocol:
FITC Annexin-V apoptosis detection kit with PI, ApopNexinTM FITC (APT750, Merk, Germany) was used for apoptosis assay. MCF-7 cells were seeded into a 6-well plate (1 × 10^6 cells per well). Then, the cells were incubated with the compounds at the cytotoxic concentration by employing a cell viability assay. Apoptotic cells were cultured with the compounds, the medium was removed after incubation, and the cells were washed twice with 5 mL of pre-chilled phosphate-buffered saline. Cells washed with PBS were lifted with Trypsin–EDTA and centrifuged at 400 rpm for 5 min. The resulting cells were each treated with 1 mL of cold 1-X Binding Buffer (Sigma Aldrich, USA). Then, 200 μL of the mixture was taken and placed in a flow cytometry tube, and the other part containing cells was kept on ice. First, 3 µl of ApopNexinTM FITC and 2 µl of 100X propidium iodide (PI) (P4170, Sigma Aldrich, USA) were added to the solution taken into the sample tube and mixed. The resulting mixture was incubated for 15 min in the dark at room temperature. At the end of the incubation, the samples were measured in flow cytometry (Beckman Coulter Cytoflex) and data were obtained.
Background: A flow cytometer gives signals particle by particle.

The test system of series [5] is MCF-7 cells. The experiment in a line: Cell cycle analysis by flow cytometry. In kind it is cell-based. The text has this: The manufacturer protocol (Sigma-Aldrich Mak344 Cell Cycle Analysis Kit) was used to perform cell cycle experiments and analyzed by flow cytometry (Beckman Coulter Cytoflex).
In series [6] the test system is Staphylococcus aureus. Put plainly: MIC and MBC test, S. aureus. In kind it is cell-based. The conditions noted are these: Staphylococcus aureus. The protocol: (§2) Using Muller Hinton agar medium, the antibacterial activity was evaluated by using 24 h cultures of Escherichia coli, Staphylococcus aureus, and Candida albicans. E. coli and S. aureus were incubated in 1% Mueller Hinton Broth (MHB) liquid medium at 37 °C for 24 h; C. albicans was incubated in Sabouraud Dextrose Broth (SDB) at 30 °C for 48 h. MIC (Minimum Inhibitory Concentration) and MBC (Minimum Bactericidal Concentration) tests were performed to determine antimicrobial activity. This stage was carried out in a sterile cabinet.
(§3) The density of microorganisms in fresh cultures was adjusted according to the MacFarland 0.5 scale. For that, the microorganisms were centrifuged at 4000 rpm for 20 min. The supernatant was poured off, and the pellet was washed with 1 mL of 0.9% NaCl solution (physiological saline). The centrifugation was then repeated. The pellet was dissolved again with saline solution and adjusted to 0.5 MacFarland. In the experiment performed in a sterile 96-well plate, compound 4o was diluted ½ with DMSO to prepare a stock solution. In the first, 100 µl of medium and 100 µl of compound 4o as initial dilutions. Dilution was performed seven times at a ratio of ½. Then, 5 µl of fresh microorganism cultures prepared as MacFarland 0.5 were inoculated. The control group was prepared as 100 µl medium, 100 µl distilled water, and 5 µl microorganisms. The plates were incubated at 37 °C and 30 °C for 24 h.
(§4) After incubation, 10 µl of the sample was taken, dropped onto the respective media, and incubated for 24 h at appropriate temperatures to clearly distinguish the residues left by the compound 4o and the growth of microorganisms. Mueller Hinton Agar (MHA) was used for E. coli and S. aureus, and Potato Dextrose Agar (PDA) was used for C. albicans. After incubation, MIC and MBC values were determined. The first well with a significant decrease in growth was considered as MIC, and the first well with no growth was considered as MBC [59, 60].

The test system of series [7] is Escherichia coli. The experiment in a line: MIC and MBC test, E. coli. Type of series: cell-based. The conditions noted are these: Escherichia coli. The protocol:
as §2, §3, §4

The test system of series [8] is Candida albicans. The experiment in a line: MIC and MBC test, C. albicans. In kind it is cell-based. The protocol:
as §2, §3, §4

On the set-up of series [9]: method as in PMID 37328860. Conditions: previous preliminary work; read-out: Antioxidant IC50 against DPPH; cited from earlier work.
Series [10] concerns HeLa cancer cell lines. More on the design: method as in PMID 37328860. The conditions noted are these: previous preliminary work; read-out: anticancer IC50 HeLa; cited from earlier work.
For series [11], the system named is MCF-7 cancer cell lines. Set-up: method as in PMID 37328860. The conditions noted are these: previous preliminary work; read-out: anticancer IC50 MCF-7; cited from earlier work.

This is an account of results in publication PMC11110238, “Synthesis of novel carbazole hydrazine-carbothioamide scaffold as potent antioxidant, anticancer and antimicrobial agents” (BMC Chemistry, 2024).

Broadly, the IC50 is the concentration at which inhibition is half-maximal. Usually MIC stands for the smallest concentration in the dilution series that meets the test's criterion for growth inhibition.

Structures are written as SMILES. Converted amounts (≈) assume the structure as drawn. Like-named read-outs stand apart in the source and are kept apart here.

With `O=C(Cn1c2ccccc2c2ccccc21)NNC(=S)NC(=O)c1ccccc1` [Compound 4o, N-(2-(2-(9H-carbazol-9-yl)acetyl)hydrazine-1-carbonothioyl)benzamide], the IC50 in series [1] was 158 ± 2.54 µM; in series [2], 2.02 ± 0.04 µM; in series [3], 37.8 µM. In series [2], the “selective index (SI)” value was 18.70. Moreover, the induction of apoptosis result in series [4] (MCF-7) was “drives MCF-7 cells to apoptosis”. In series [4] (MCF-7, cytotoxic concentration), this compound showed a necrosis cell population of 3.69%. In series [4] (MCF-7, cytotoxic concentration), this compound returned a post-apoptotic cell population of 4.33%. The compound also returned a pre-apoptotic cell population in [4] (MCF-7, cytotoxic concentration) of 8.20%. This compound gave a viable cell population in [4] (MCF-7, cytotoxic concentration) of 83.78%. Moreover, the total dead cells in [4] was found to be 16.22%. The cell cycle arrest entry in series [5] was “cell cycle arrest in the MCF-7 cell line in the G2/M phase”. Besides, the MIC in series [6] was found to be 1.56 µM (≈ 0.628 µg/mL); in series [7] (read-out: MIC), 1.56 µM (≈ 0.628 µg/mL); in [8], 0.39 µM (≈ 0.157 µg/mL). For the same compound, the MBC was found to be 1.56 µM (≈ 0.628 µg/mL) in series [6] (read-out: MBC), 1.56 µM (≈ 0.628 µg/mL) in series [7] (read-out: MBC) and 0.39 µM (≈ 0.157 µg/mL) in [8].
`COc1cccc2c1C(=O)c1c(O)c3c(c(O)c1C2=O)C[C@@](O)(C(=O)CO)C[C@@H]3O[C@H]1C[C@H](N)[C@H](O)[C@H](C)O1` [Doxorubicin, reference compound]: in series [2], the IC50 was 5.06 ± 0.21 µM and the “selective index (SI)” value is recorded as 3.82. Besides, in series [3], the midpoint of inhibition, the IC50, lay at 19.3 µM. Besides, the total dead cells in series [4] is 14.50%.
Take `COc1ccc(S(=O)(=O)NNC(=O)Cn2c3ccccc3c3ccccc32)cc1` [St.1]: the 50% inhibitory concentration (IC50) in series [9] is 1.05 µM.
For the compound `O=C(Cn1c2ccccc2c2ccccc21)N/N=C1\SCC(=O)N1c1ccc(Cl)cc1` [St.2], the IC50 in series [9] was 5.15 µM; in series [10] it was 7.59 µM; in series [11] it was 18.4 µM.
Turning to `O=C(c1ccc(F)cc1)n1nc(Cn2c3ccccc3c3ccccc32)oc1=O` [St.3], the figures for the IC50 in [10] and in series [11] were 17.2 µM and 6.44 µM, respectively.
